A short description of this data set: Absorption maximum of asymmetric sensitizers. Format: physicochemical. An excerpt: The asymmetric sensitizers AS-02, AS-03, AS-04 and AS-05 were obtained using a similar preparation method. The asymmetric sensitizers AS-01 to AS-05 are given in Table 2 together with their absorption maximum (Abs.Max (nm)) and their melting point (° C.).

As for `CCCCC(CC)COc1c(OC)cc(/C=C/c2ccc(/C=C/c3cc(OC)c(OC(C)CC)c(OC)c3)cc2)cc1OC` (centres unmarked) [AS-01], the “Abs. Max” value is listed as 371 nm.

Consider `CCC(C)Oc1c(OC)cc(/C=C/c2ccc(/C=C/c3cc(OC)c(OC(CC)CC)c(OC)c3)cc2)cc1OC` (centres unmarked) [AS-02], for which the “Abs. Max” value was 370 nm.

For `CCC(C)Oc1c(OC)cc(/C=C/c2ccc(/C=C/c3cc(OC)c(OC4CCCCC4)c(OC)c3)cc2)cc1OC` (centres unmarked) [AS-03], the “Abs. Max” value was 371 nm.

As to `CCC(C)Oc1c(OC)cc(/C=C/c2ccc(/C=C/c3cc(OC)c(OC4CCCC4)c(OC)c3)cc2)cc1OC` (centres unmarked) [AS-04], the “Abs. Max” value is listed as 371 nm.

Consider `CCC(C)Oc1c(OC)cc(/C=C/c2ccc(/C=C/c3cc(OC)c(OCCO)c(OC)c3)cc2)cc1OC` (centres unmarked) [AS-05], for which the “Abs. Max” value turned out to be 371 nm.

The record behind these values is patent publication US20100190105A1, “LITHOGRAPHIC PRINTING PLATE PRECURSOR” (Agfa Graphics NV, priority 2007, published 2010).
